Laboratory results from article PMC2804908 (Journal of medicinal chemistry, 2010).
“And” between values parts separate entries of the source, which are not always exact repeats. Equal values may be shown once. Read-outs that look alike come from different tables or passages of the source.

Tests used:
hP2Y14 receptor = target: T1, hP2Y14 receptor (Homo sapiens, UniProt Q15391); experiment: P2Y14 receptor-inhibited accumulation of cAMP; format: cell-based; conditions: for EC50: read-out: EC50, hP2Y14, inhibition of cAMP formation, HEK-293 cells stably transfected with hP2Y14, mean ± standard error, N = 3, NE = no effect at 10 μM; for agonist activity at the P2Y14 receptor (in words): HEK-293 cells expressing hP2Y14; for fold selectivity for P2Y14 in comparison to P2Y6: ratio of EC50 at hP2Y6 to EC50 at hP2Y14; for fold less potent than UDP 3 at the P2Y14 receptor / fold more potent than UDP 3 at the P2Y14 receptor: relative to compound 3
T1 sequence (Q15391 1-338): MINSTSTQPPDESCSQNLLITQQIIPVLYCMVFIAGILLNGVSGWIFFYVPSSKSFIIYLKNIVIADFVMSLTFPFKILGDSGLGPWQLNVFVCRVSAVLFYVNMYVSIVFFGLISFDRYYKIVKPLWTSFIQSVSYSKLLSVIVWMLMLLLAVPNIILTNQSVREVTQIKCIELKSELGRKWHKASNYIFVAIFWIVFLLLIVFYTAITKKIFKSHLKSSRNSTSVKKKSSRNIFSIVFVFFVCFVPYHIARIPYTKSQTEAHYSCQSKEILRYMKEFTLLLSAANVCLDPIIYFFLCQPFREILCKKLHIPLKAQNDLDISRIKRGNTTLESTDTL

hP2Y6 receptor [1] = target: T2, hP2Y6 receptor (Homo sapiens, UniProt Q15077); experiment: P2Y6 receptor-stimulated PLC activity; format: cell-based; conditions: for agonist activity at the P2Y6 receptor (in words): at the concentrations tested
T2 sequence (Q15077 whole entry): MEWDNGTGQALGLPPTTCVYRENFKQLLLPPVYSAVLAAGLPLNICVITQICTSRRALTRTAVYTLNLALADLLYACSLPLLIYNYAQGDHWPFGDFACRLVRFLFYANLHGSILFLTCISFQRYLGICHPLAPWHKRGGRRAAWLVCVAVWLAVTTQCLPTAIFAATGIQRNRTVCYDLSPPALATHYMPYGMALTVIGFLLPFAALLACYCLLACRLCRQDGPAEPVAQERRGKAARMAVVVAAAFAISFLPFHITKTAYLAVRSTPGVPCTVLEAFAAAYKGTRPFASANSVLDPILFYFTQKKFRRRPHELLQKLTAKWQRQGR

hP2Y6 receptor [2] = target: T2, hP2Y6 receptor; conditions: read-out: EC50, hP2Y6; stimulation of PLC, hP2Y6 in 1321N1 cells; footnote b; NE = no effect at 10 μM; ref Maruoka et al. 15, Besada et al. 17, Ko et al. 18; cited from earlier work

For `O=c1ccn([C@@]23C[C@H]2[C@H](COP(=O)(O)OP(=O)(O)O)[C@@H](O)[C@H]3O)c(=O)[nH]1` [Compound 9, (S)-methanocarba UDP], the EC50 (hP2Y14 receptor) was > 10 µM.
With `O=c1ccn([C@@H]2O[C@H](COP(=O)(O)OP(=O)(O)O)[C@@H](O)[C@H]2O)c(=O)[nH]1` [Compound 3, uridine-5′-diphosphate, reference compound] the “agonist activity at the P2Y14 receptor (in words)” value (hP2Y14 receptor) was “moderately potent agonists” and the “agonist activity at the P2Y14 receptor (in words)” value (hP2Y14 receptor; listed as UDP) was “full agonist”.
With `O=c1ccn([C@H]2[C@H](O)[C@H](O)[C@@]3(COP(=O)(O)OP(=O)(O)O)C[C@H]23)c(=O)[nH]1` [Compound 8, (N)-methanocarba UDP] the EC50 (hP2Y14 receptor) was > 10 µM and the EC50 (hP2Y6 receptor [1]; read-out: EC50, hP2Y6, stimulation of PLC, hP2Y6 stably expressed in 1321N1 cells, mean ± standard error, N = 3, >10,000 = <50% effect at 10 μM, NE = no effect at 10 μM) was > 10 µM.
In the case of `COP(=O)(O)OP(=O)(O)OC[C@H]1O[C@@H](n2ccc(=O)[nH]c2=O)[C@H](O)[C@@H]1O.N` [Compound 14, Diphosphoric acid 1-β-methyl ester 2-(uridine-5′-yl)ester], the “agonist activity at the P2Y14 receptor (in words)” value (hP2Y14 receptor) is reported as “weakly activated” and the “agonist activity at the P2Y6 receptor (in words)” value (hP2Y6 receptor [1]) is reported as “inactive”.
In the case of `CC(C)(C)OP(=O)(O)OP(=O)(O)OC[C@H]1O[C@@H](n2ccc(=O)[nH]c2=S)[C@H](O)[C@@H]1O.N` [Compound 25, Diphosphoric acid 1-β-tert-butyl ester 2-(2-thiouridine-5′-yl)ester], the “fold more potent than UDPG at the P2Y14 receptor” value (hP2Y14 receptor; relative to UDPG 1) is reported as 11 fold and the “fold more potent than the corresponding 2-oxo analogue 24 at the P2Y14 receptor” value (hP2Y14 receptor; relative to compound 24) is reported as 8 fold.
In the case of `O=c1[nH]c(=S)ccn1[C@@H]1O[C@H](COP(=O)(O)OP(=O)(O)O)[C@@H](O)[C@H]1O` [Compound 5, 4-thio-UDP], the “agonist activity at the P2Y14 receptor (in words)” value (hP2Y14 receptor) is reported as “moderately potent agonists”.
For `O=c1[nH]c(=O)n([C@@H]2O[C@H](COP(=O)(O)C(F)(F)P(=O)(O)O)[C@@H](O)[C@H]2O)cc1I` [Compound 13, 5-I-Up-CF2-p], the “fold selectivity for P2Y14 in comparison to P2Y6” value (“fold selectivity for P2Y14” for short) (hP2Y14 receptor) was “not selective”.
In the case of `C#CCCOP(=O)(O)OP(=O)(O)OC[C@H]1O[C@@H](n2ccc(=O)[nH]c2=O)[C@H](O)[C@@H]1O.CCN(CC)CC` [Compound 20, Diphosphoric acid 1-β-(3-butynyl)ester 2-(uridine-5′-yl)ester], the “fold less potent than UDP 3 at the P2Y14 receptor” value (hP2Y14 receptor) is reported as 2 fold.
In the case of `C#CCCOP(=O)(O)OP(=O)(O)OC[C@H]1O[C@@H](n2ccc(=O)[nH]c2=S)[C@H](O)[C@@H]1O.CCN(CC)CC` [Compound 21, Diphosphoric acid 1-β-(3-butynyl) ester 2-(2-thiouridine-5′-yl)ester], the “fold selectivity for P2Y14” value (hP2Y14 receptor) is reported as > 900 fold and the “fold more potent than UDP 3 at the P2Y14 receptor” value (hP2Y14 receptor) is reported as 16 fold.
`CC(C)(C)OP(=O)(O)OP(=O)(O)OC[C@H]1O[C@@H](n2ccc(=O)[nH]c2=O)[C@H](O)[C@@H]1O` [Compound 24, Diphosphoric acid 1-β-tert-butyl ester 2-(uridine-5′-yl)ester] showed an EC50 (hP2Y6 receptor [1]) of 10.8 µM.
With `CCCOP(=O)(O)OP(=O)(O)OC[C@H]1O[C@@H](n2ccc(=O)[nH]c2=S)[C@H](O)[C@@H]1O.N` [Compound 18, Diphosphoric acid 1-β-propyl ester 2-(2-thiouridine-5′-yl)ester] the “fold selectivity for P2Y14” value (hP2Y14 receptor) was > 200 fold.
In the case of `N.O=c1ccn([C@@H]2O[C@H](COP(=O)(O)OP(=O)(O)OCC(O)CO)[C@@H](O)[C@H]2O)c(=O)[nH]1` (stereo partly drawn) [Compound 22, Diphosphoric acid 1-α-glycerol ester 2-(uridine-5′-yl)ester], the “fold less potent than UDP 3 at the P2Y14 receptor” value (hP2Y14 receptor) is reported as 10 fold.
In the case of `CCOP(=O)(O)OP(=O)(O)OC[C@H]1O[C@@H](n2ccc(=O)[nH]c2=S)[C@H](O)[C@@H]1O.N` [Compound 17, Diphosphoric acid 1-β-ethyl ester 2-(2-thiouridine-5′-yl)ester], the “fold selectivity for P2Y14” value (hP2Y14 receptor) is reported as > 200 fold and > 250 fold.
For `O=c1ccn([C@@H]2O[C@H](COP(=O)(O)C(F)(F)P(=O)(O)O)[C@@H](O)[C@H]2O)c(=O)[nH]1` [Compound 12, α,β-difluoromethylene UDP], the “agonist activity at the P2Y6 receptor (in words)” value (hP2Y6 receptor [1]) is given as “did not activate” and the EC50 (hP2Y6 receptor [2]) is given as > 10 µM.
In the case of `COP(=O)(O)OP(=O)(O)OC[C@H]1O[C@@H](n2ccc(=O)[nH]c2=S)[C@H](O)[C@@H]1O.N` [Compound 15, Diphosphoric acid 1-β-methyl ester 2-(2-thiouridine-5′-yl)ester], the “fold selectivity for P2Y14” value (hP2Y14 receptor) is reported as > 180 fold.
In the case of `O=c1ccn([C@@H]2O[C@H](COP(=O)(O)OP(=O)(O)O)[C@@H](O)[C@H]2O)c(=S)[nH]1` [Compound 4, 2-thio-UDP], the “fold selectivity for P2Y14” value (hP2Y14 receptor) is reported as 233 fold and the “fold more potent than UDP 3 at the P2Y14 receptor” value (hP2Y14 receptor) is reported as 83 fold.
With `CO/N=c1\ccn([C@@H]2O[C@H](COP(=O)(O)OP(=O)(O)O)[C@@H](O)[C@H]2O)c(=O)[nH]1.Cl` [Compound 7, N^4-OCH3-CDP] the “fold less potent than UDP 3 at the P2Y14 receptor” value (hP2Y14 receptor) was 20 fold.
In the case of `N.N#CCCOP(=O)(O)OP(=O)(O)OC[C@H]1O[C@@H](n2ccc(=O)[nH]c2=O)[C@H](O)[C@@H]1O` [Compound 19, Diphosphoric acid 1-β-(2-cyanoethyl)ester 2-(uridine-5′-yl)ester], the “agonist activity at the P2Y14 receptor (in words)” value (hP2Y14 receptor) is reported as “poorly tolerated”.
For `COP(=O)(O)OP(=O)(O)OC[C@H]1O[C@@H](n2ccc(=S)[nH]c2=O)[C@H](O)[C@@H]1O` [Compound 16, Diphosphoric acid 1-β-methyl ester 2-(4-thiouridine-5′-yl)ester], the EC50 (hP2Y14 receptor) was > 10 µM.
